Patent publication US20050042213A1, “Methods and pharmaceutical compositions for modulating heparanase activation and uses thereof” (InSight Biopharmaceuticals Ltd., priority 2003, published 2005)

Key:
VEGF = target: T1, VEGF (Homo sapiens, UniProt P15692); test: Elisa assay for binding of VEGF to heparin; settings: inhibition of VEGF binding to heparin
T1 sequence (P15692 27-191 isoform P15692-4): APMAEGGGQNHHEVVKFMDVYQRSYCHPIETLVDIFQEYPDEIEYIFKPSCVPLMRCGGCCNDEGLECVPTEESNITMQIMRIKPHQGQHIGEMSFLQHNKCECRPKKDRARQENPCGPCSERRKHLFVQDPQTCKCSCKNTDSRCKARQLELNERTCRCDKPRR
Protocol: Elisa assay for determination of binding of VEGF to heparin—96 well microplates were coated overnight with Heparin-albumin (Lizard) and blocked with 1% BSA in PBS with 0.05% Tween and 0.01% thimerosal for 2 hrs. VEGF was added to the plates at a concentration of 2 ng/ml and incubated for 45 min. at 23-25° C. The amount of VEGF bound to heparin was detected using anti-VEGF monoclonal antibody (Sigma Cat. # V4758) at a concentration of 0.26 μg/ml and secondary antibodies Sheep anti-mouse IgG linked to horseradish peroxidase (1:2000). TMB (Pierce Cat. #34021) was used as a substrate for peroxidase.
The plates were read at 450 nm with a reference wavelength of 630 nm using a VERSAmax plate reader. […] Percent inhibition was calculated as compared with the control reactions pre-incubated with 1% DMSO only.

pro-heparanase (H60) [1] = target: T2, pro-heparanase (H60) (Homo sapiens, UniProt Q9Y251, K307R); test: Pro-heparanase activation in a cell-based assay (293 cells, DMB assay); settings: inhibition of pro-heparanase activation (H60); Table 15
T2 sequence (Q9Y251 36-543 K307R): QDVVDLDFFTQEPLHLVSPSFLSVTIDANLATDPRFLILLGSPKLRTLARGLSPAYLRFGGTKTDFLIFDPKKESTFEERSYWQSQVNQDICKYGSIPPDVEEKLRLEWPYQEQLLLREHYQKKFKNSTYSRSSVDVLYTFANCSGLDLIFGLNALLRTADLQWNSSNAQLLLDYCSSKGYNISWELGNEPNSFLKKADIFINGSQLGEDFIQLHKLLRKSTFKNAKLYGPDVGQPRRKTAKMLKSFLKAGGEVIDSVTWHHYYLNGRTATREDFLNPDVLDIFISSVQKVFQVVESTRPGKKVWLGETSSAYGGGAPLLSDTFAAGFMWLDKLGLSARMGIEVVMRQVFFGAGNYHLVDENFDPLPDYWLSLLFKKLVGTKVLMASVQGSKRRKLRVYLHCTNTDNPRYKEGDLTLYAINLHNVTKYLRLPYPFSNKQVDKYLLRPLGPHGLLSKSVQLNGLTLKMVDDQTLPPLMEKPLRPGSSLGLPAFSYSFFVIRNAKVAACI

heparanase (H53) = target: T3, heparanase (H53) (Homo sapiens, UniProt Q9Y251, K307R); test: Heparanase activity inhibition (H53), DMB assay; format: biochemical
T3 sequence (Q9Y251 158-543 K307R limits assumed): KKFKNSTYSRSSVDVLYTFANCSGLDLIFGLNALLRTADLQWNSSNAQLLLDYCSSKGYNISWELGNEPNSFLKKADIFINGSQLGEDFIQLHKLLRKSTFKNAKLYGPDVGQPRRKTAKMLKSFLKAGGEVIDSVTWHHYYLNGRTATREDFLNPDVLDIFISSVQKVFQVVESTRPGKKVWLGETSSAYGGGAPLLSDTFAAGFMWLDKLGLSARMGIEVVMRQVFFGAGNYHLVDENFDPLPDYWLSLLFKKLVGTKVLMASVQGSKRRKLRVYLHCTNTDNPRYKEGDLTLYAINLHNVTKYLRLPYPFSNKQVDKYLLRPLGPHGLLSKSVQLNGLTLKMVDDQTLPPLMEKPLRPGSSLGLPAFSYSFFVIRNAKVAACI
T3 sequence (Q9Y251 36-109 limits assumed): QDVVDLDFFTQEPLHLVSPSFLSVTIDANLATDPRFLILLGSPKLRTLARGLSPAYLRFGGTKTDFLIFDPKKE
Protocol: At the end of the incubation, the cells were lysed by three consecutive cycles of freezing and thawing in a −80° C. Freezer and a 37° C. shaker. Formation of active heparanase was detected by determination of heparanase activity in DMB assay as described in patent application U.S. Pat. No. 6,190,875B.

pro-heparanase (H60) [2] = target: T2, pro-heparanase (H60); test: Circular dichroism spectrometry of pro-heparanase; settings: data not shown
Protocol: Circular Dichroism spectrometry—Circular Dichroism spectra were recorded using a JASCO 500 spetropolarimeter. Far Ultraviolet measurements (260-200 nm) were performed in a 0.1 mm demountable cuvette at 25° C., scanning at a rate of 10 nm/min. Pro-heparanase was assayed at a concentration of 0.72 mg/ml in 20 mM sodium phosphate buffer pH 6.8 supplemented with 300 mM NaCl. Effect of heparin on pro-heparanase spectra was determined at a concentration of 100 μM, and the inhibitor was added at a concentration of 15 μM. Base-line recordings were performed in the presence and absence of heparin to correct the pro-heparanase spectra.

HUVEC cells = test: Cord Formation Assay; format: cell-based; settings: Homo sapiens; HUVEC cells on matrigel, 24 h; read-out: Inhibition of cord formation IC50
Protocol: Cord formation and cell migration assays were executed following explicit directives provided by the inventors of the present invention by the National Cancer Institute (Biological Testing Branch, Developmental Therapeutics Program, DCTD, NCI, Fairview Center, Suite 205, 1003 West 7th Street, Frederick, Md. 21701-8527).
Cord Formation Assay—Matrigel (60 μl of 10 mg/ml; Collaborative Lab # 35423) was placed in each well of an ice-cold 96-well plate. The plate was incubated at room temperature for 15 minutes and then transferred to 37° C. for 30 minutes to permit matrigel polymerization. Concomitantly with plate coating, HUVEC cells were diluted in EGM-2 (Clonetic # CC3162) at a concentration of 2×10^5 cells/ml. Each test compound was prepared at a 2 fold higher concentration than desired (5 concentration levels) using the same medium. Cells (500 μl) and 2× drug (500 μl) were mixed and 200 μl of this suspension were placed in duplicates on the polymerized matrigel. Following 24 h incubation, triplicate pictures were taken for each concentration using a Bioquant Image Analysis system. Drug effect (IC50) was assessed by comparing to untreated controls and measuring the length of cords formed and number of junctions.

pro-heparanase (H60) [3] = target: T2, pro-heparanase (H60); test: Surface plasmon resonance, interaction with the pro-heparanase polypeptide; format: binding; settings: data not shown

IC50 (VEGF): 3.2 µM
IC50 (pro-heparanase (H60) [1]): 0.13 µM
heparanase activity inhibition (H53) in addition to inhibition of pro-heparanase activation (heparanase (H53)): dual activity
IC50 (heparanase (H53); heparanase activity inhibition (H53), NI = no inhibition): 12.5 µM
change in conformation of H60 induced by heparin (pro-heparanase (H60) [2]): prevents the change in conformation
binding to the H60 molecule (pro-heparanase (H60) [3]): reversibly bind
SMILES: O=C(O)CCCN1C(=O)C(=Cc2ccc(-c3ccc([N+](=O)[O-])cc3)o2)SC1=S [Compound 5]
IC50 (HUVEC cells): 3.9 µM
